The results in this text go back to EPA's ToxValDB 9.5 (doi:10.2903/j.efsa.2010.1653).

For one data set, the system named is Oryctolagus sp. The conditions noted are these: developmental; development.
Another data set concerns Apis mellifera. The conditions noted are these: acute; duration: 48 hours; oral; unspecified; mortality.
The test system of data set [1] is Typhlodromus pyri. The conditions noted are these: chronic/long-term; duration: 14 days; reproduction.
The test system of another data set is Tagia sp. The conditions noted are these: acute; duration: 14 days; mortality.
A further data set relates to Daphnia magna. The conditions noted are these: chronic/long-term; duration: 21 days; reproduction.
Another data set concerns Canidae. The conditions noted are these: chronic; duration: 1 years; oral; Dog Other; body weight.
The subject of a further data set is Bibionidae. The conditions noted are these: chronic/long-term; duration: 28 days; development.
The next data set relates to Coturnix japonica. The conditions noted are these: acute; oral; mortality.
Data set [2] concerns Typhlodromus pyri. In words: LR50; higher = less toxic. The conditions noted are these: acute; duration: 7 days; mortality.
Where [3] appears, read: reproduction developmental, reproduction.

What is called NOAEL is the highest dose or exposure tested at which no adverse effect was seen.

The structures appear in SMILES notation.

`Cc1cc(=O)[nH]o1` [Hymexazol]: the LD50 in the data set with Rattus norvegicus (acute, oral, mortality) is 1390 mg/kg; in the data set on Apis mellifera, over 100 µg/piece; with Coturnix japonica it was over 1080 mg/kg. For the same compound, in the data set on Rattus norvegicus (setting [3]), the NOEL is 37 mg/kg-day. Also, the LC50 is over 1470 mg/kg-day in the data set with Colinus virginianus (acute, oral, diet, mortality); 282 mg/kg with Tagia sp.; over 100 µg/mL with Oncorhynchus mykiss (acute, duration: 96 hours, mortality). Moreover, the NOEC was 86.5 mg/kg-day in the data set with Colinus virginianus (setting [3]); 400 g/ha with Typhlodromus pyri [1]; over 100 mg/L in the data set with Oncorhynchus mykiss (chronic/long-term, duration: 28 days, body weight); 0.8 mg/L with Daphnia magna; 1.6 mg/L with Bibionidae. Further, the NOAEL with Oryctolagus sp. was 50 mg/kg-day; with Canidae, 17 mg/kg-day. The compound also showed an LR50 in the data set on Typhlodromus pyri [2] of 1110 g/ha.
